# In patent US8288371B2, “Ortho pyrrolidine, benzyl-substituted heterocycle CCR1 antagonists for autoimmune diseases and inflammation” (Pharmacopeia, LLC, priority 2007, dated 2012):
# Molecular target: T1, human CCR1 (Homo sapiens, UniProt P32246)
# T1 sequence (P32246 1-355): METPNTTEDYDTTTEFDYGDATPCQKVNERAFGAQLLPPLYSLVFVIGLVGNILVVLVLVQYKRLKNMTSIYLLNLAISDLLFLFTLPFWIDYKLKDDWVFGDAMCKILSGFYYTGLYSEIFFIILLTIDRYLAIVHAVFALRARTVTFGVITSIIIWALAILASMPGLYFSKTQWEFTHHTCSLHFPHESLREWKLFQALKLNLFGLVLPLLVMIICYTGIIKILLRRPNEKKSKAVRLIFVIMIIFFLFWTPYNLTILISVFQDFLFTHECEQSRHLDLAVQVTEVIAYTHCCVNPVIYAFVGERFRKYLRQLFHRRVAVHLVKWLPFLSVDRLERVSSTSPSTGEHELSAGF
# Assay: CCR1 binding protocol (SPA, [125I]-MIP-1α displacement)
# Settings: cell membrane expressing human CCR1, 0.1 nM [125I]-MIP-1α, 4 hours at ambient temperature; read-out: Relative potency (IC50)
# In short: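 Displacement of 0.1 nM [125I]-MIP-1α (final) from membranes expressing human CCR1 was measured by scintillation proximity after 4 h at ambient temperature. Conditions: pH 7.4 Tris buffer with 0.1% BSA and MnCl, and 0.5 μg membrane per well. Compounds were tested as a 10-step ½-log series from a 10 mM DMSO stock to derive IC50.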
row,IC50,Compound
1,< 50 nM,Cc1nnc([C@H]2CCCN2C(=O)Nc2cccc(Cl)c2F)n1Cc1ccc(Cl)cc1 [Compound 416]
2,< 50 nM,Cc1nnc([C@H]2C[C@@H](O)CN2C(=O)N[C@H]2CCOc3cc(C(F)(F)F)ccc32)n1Cc1ccc(Cl)cc1 [Compound 393]
3,50 to 500 nM,Cc1nnc([C@H]2CCCN2C(=O)NCc2cccc(C(F)(F)F)c2)n1Cc1ccc(Cl)cc1 [Compound 145]
4,50 to 500 nM,CNC(=O)c1ccc(F)c(NC(=O)N2CCC[C@@H]2c2nnc(C)n2Cc2ccc(Cl)cc2)c1 [Compound 301]
5,50 to 500 nM,Cc1nc(C(F)(F)F)ccc1NC(=O)N1CC2CC2C1c1nnc(C)n1Cc1ccc(Cl)cc1 (centres unmarked) [Compound 544]
6,< 50 nM,Cc1ccc(C(=O)N(C)C)cc1NC(=O)N1CCC[C@@H]1c1nnc(C)n1Cc1ccc(Cl)cc1 [Compound 208]
7,50 to 500 nM,Cc1onc(-c2ccccc2)c1NC(=O)N1C[C@H](O)C[C@@H]1c1nnc(C)n1Cc1ccc(Cl)cc1 [Compound 392]
8,< 50 nM,Cc1cc(C)c(NC(=O)N2CCC[C@@H]2c2nnc(C)n2Cc2ccc(Cl)cc2)c(C)n1 [Compound 296]
9,50 to 500 nM,Cc1cc(C#N)ccc1NC(=O)N1CC(F)C[C@@H]1c1nnc(C)n1Cc1ccc(Cl)cc1 (some centres unmarked) [Compound 581]
10,< 50 nM,Cc1nnc([C@H]2CCCN2C(=O)NCc2ccccc2-c2cc(C(F)(F)F)nn2C)n1Cc1ccc(Cl)cc1 [Compound 622]

# Further lines, the molecule ahead of its results:
row,Compound,IC50
1,Cc1nnc([C@H]2CCCN2C(=O)Nc2ccc(S(N)(=O)=O)cc2)n1Cc1ccc(Cl)cc1 [Compound 355],500 to 5000 nM
2,Cc1nnc([C@H]2CCCN2C(=O)Nc2cccc(S(N)(=O)=O)c2)n1Cc1ccc(Cl)cc1 [Compound 354],500 to 5000 nM
3,Cc1nnc([C@H]2CC(F)CN2C(=O)NC2C[C@@H]2c2ccccc2)n1Cc1ccc(Cl)cc1 (some centres unmarked) [Compound 576],50 to 500 nM
4,Cc1nnc([C@H]2CCCN2C(=O)N[C@H]2COCc3c(F)cccc32)n1Cc1ccc(Cl)cc1 [Compound 138],50 to 500 nM
5,Cc1nnc([C@H]2C[C@@H](O)CN2C(=O)Nc2ccc(OC3CCOCC3)nc2)n1Cc1ccc(Cl)cc1 [Compound 558],500 to 5000 nM
6,Cc1nnc([C@H]2CCCN2C(=O)Oc2ccc(F)cc2)n1Cc1ccc(Cl)cc1 [Compound 176],500 to 5000 nM
7,Cc1onc(-c2ccccc2)c1N/C(=N/C#N)N1CCC[C@@H]1c1nnc(C)n1Cc1ccc(Cl)cc1 [Compound 222],50 to 500 nM
8,O=C(N[C@H]1CCOc2cc(C(F)(F)F)ccc21)N1CCC[C@@H]1c1ncnn1Cc1ccc(Cl)cc1 [Compound 57],< 50 nM
9,Cc1ccc(C(C)(C)NC(=O)N2CCC[C@@H]2c2nnc(C)n2Cc2ccc(Cl)cc2)cc1 [Compound 322],< 50 nM
10,Cc1cc(C)c(NC(=O)N2CCC[C@@H]2c2nnc(C)n2Cc2ccc(Cl)cc2)c(C(=O)N(C)C)c1 [Compound 239],50 to 500 nM
11,O=C(N[C@H]1CCOc2cc(Cl)ccc21)N1CCC[C@@H]1c1ncnn1Cc1ccc(Cl)cc1 [Compound 65],50 to 500 nM
12,Cc1nnc([C@H]2CCCN2C(=O)N[C@H]2CCOc3cc(Cl)ccc32)n1Cc1ccc(Cl)cc1 [Compound 113],< 50 nM
13,CC[C@H](NC(=O)N1CCC[C@@H]1c1nnc(C)n1Cc1ccc(Cl)cc1)c1ccc(Cl)c(Cl)c1 [Compound 191],< 50 nM
14,Cc1onc(-c2ccncc2)c1NC(=O)N1CCC[C@@H]1c1nnc(C)n1Cc1ccc(Cl)cc1 [Compound 304],< 50 nM
15,Cc1nnc([C@H]2CCCN2C(=O)N[C@@H](C)c2ccc3ccccc3c2)n1Cc1ccc(Cl)cc1 [Compound 131],< 50 nM
16,O=C(N[C@H]1CCOc2cc(C(F)(F)F)ccc21)N1CCC[C@@H]1c1nncn1Cc1ccc(Cl)cc1 [Compound 107],< 50 nM
17,Cc1nnc([C@H]2C[C@H](O)CN2C(=O)NC2CCOc3cc(C#N)ccc32)n1Cc1ccc(Cl)cc1 (some centres unmarked) [Compound 440],< 50 nM
18,Cc1noc(C)c1NC(=O)N1CCC[C@@H]1c1nnc(C)n1Cc1ccc(Br)cc1 [Compound 554],50 to 500 nM
19,Cc1onc(-c2cccnc2)c1NC(=O)N1CCC[C@@H]1c1nnc(C)n1Cc1ccc(Cl)cc1 [Compound 306],< 50 nM
